Consider one substance from US20220387433A1, “TYPE V PHOSPHODIESTERASE INHIBITOR COMPOSITIONS, METHODS OF MAKING THEM AND METHODS OF USING THEM IN PREVENTING OR TREATING ELEVATED PULMONARY VASCULAR PRESSURE OR PULMONARY HEMORRHAGES” (American Regent, Inc., priority 2019, published 2022).

The test has as its system exercising horses. The experiment in a line: Simulated race test (SRT) on high-speed treadmill. The class given is in vivo. From the text:
The purpose of this study was to determine the effects of intravenous administration of E-4021 on cardiorespiratory variables in exercising horses to facilitate the selection of a product dose for the control of hemorrhage associated with Exercise Induced Pulmonary Hemorrhage (EIPH). The formulation given was the propylene glycol formulation of Table 1.
Animals: The Rutgers University Institutional Animal Care and Facilities Committee approved all methods and procedures used in this experiment. Eight mature unfit Standardbred horses, 4 geldings and 4 mares were used in this study. The horses were healthy and acceptable for the study as determined by the study veterinarian. All horses underwent a physical examination to establish suitability for inclusion within the study. This included a physical examination and body weights. All of the horses were dewormed and vaccinated per standard veterinary practice. Animals were fed a maintenance ration of alfalfa/grass hay ad libitum and concentrate as needed. Water and mineral blocks were provided ad libitum. The horses were housed individually in 3×3 m stalls between 1600 to 0700 hours. They then performed their daily exercise followed by turnout in groups of 4 in 2 acres dry lot paddocks for ˜7 hrs/day.
General Study Design: There were four phases in this study detailed below. The horses performed conditioning exercise 4 d/week in a motorized equine exercise machine (Equi-cizer, Calgary, Canada) and heavy exercise 1 d/week on a high-speed treadmill (Sato I, Lexington Ky.) during Phase I. Heavy exercise prepared the horses for the later exercise tests performed during Phase Ib, Phase II, and Phase III of the experiment. The exercise tests were performed in the place of the heavy exercise training during those later three periods.
Phase II: This was the first part of the main study with test-article dosing of the horses (Weeks ≥12). This part of the experiment was conducted using a randomized semi-crossover design with each horse undergoing a control round within the first two weeks of the phase. Horses were randomly assigned to one of five treatments (CON; 50-45; 100-45; 50-90; 100-90). Control (CON) where no drug was administered; 50-45 where they were tested 45 minutes after receiving a dose of 50 mg; 100-45 where they were tested 45 minutes after receiving 100 mg of the test-article; 50-90 where they were tested 90 minutes after receiving a 50 mg dose; and 100-90 where they were tested 90 minutes after receiving a 100 mg dose. For this phase, the horses ran a simulated race test (SRT) every week on the heavy exercise days. Group A (n=4) horses ran their tests on Thursdays (mornings) and Group B (n=4) horses ran their tests on Fridays (mornings). All horses continued with light and moderate exercise as indicated for the other study days.
Phase III: This was the second part of the main study. This part of the experiment was conducted using a randomized crossover design where horses were initially assigned to one of four treatments (CON-B; 100-90B; 150-90; 200-90). Control (CON-B) where the horses received no drug; 100-90B where they were tested 90 minutes after receiving a 100 mg dose; 150-90 where they were tested 90 minutes after receiving a 150 mg dose; and 200-90 where they were tested 90 minutes after receiving a 200 mg dose. As with the other treatment phase the horses ran a weekly simulated race test (SRT) on the heavy exercise days. Group A (n=4) horses ran their tests on Thursdays (mornings) and Group B (n=4) horses ran their tests on Fridays (mornings).
Simulated Race Test (SRT): During the SRT, each horse ran at a speed calculated to correspond to 110% of the speed required to produce maximal oxygen uptake as measured during the GXTs performed during Phase Ib. […] Hemodynamic measurements were recorded, and blood samples were obtained to correspond with the end of the warm-up, at 1 minute and 2 minutes of the high-speed run, and at the end of the recovery period. […]

Take “sodium 1-[6-chloro-4-(3,4-methylenedioxybenzyl)-aminoquinazolin-2-yl]piperidine-4-carboxylate sesquihydrate [E-4021]”: the “Attenuation of increased exercise-related pulmonary vascular pressures” value (100 mg (approximately 500 kg horse), 90 minutes prior to intense exercise) is given as “greatest attenuation”. In addition, for the setting “100 mg dose given at 90 min, Phase II and III”, the “Lower PA pressure after 2 min intense exercise” value is around 30 mm Hg. Where the note is “90 min before exercise, P>0.05, sesquihydrate”, the “Magnitude of PA pressure, 100 mg vs. 150 mg vs. 200 mg trials” value is “no differences”. In addition, where the note is “Example 8, 100 mg at 90 minutes before exercise, propylene glycol formulation”, the “Lower PAP” value is around 30 mmHg. For the same substance, the “Mean pulmonary artery pressures compared to control” value (Phase III, 100, 150, 200 mg 90 min before, at 2 minutes of high intensity exercise, P<0.05) was “lower”. For the same substance, the “Markers of aerobic and anaerobic performance” value (SRT, propylene glycol formulation) is recorded as “did not alter”. Moreover, the “Effect on plasma lactate concentration” value (SRTs, P>0.05) is on record as “no effect”. Where the note is “during the SRTs”, the “Effect on plasma calcium concentration” value is “no effect” and the “Effect on plasma glucose concentration” value is on record as “significant effect”.
